Reference: US20250296959A1, “B7-H3 TARGETING PEPTIDES AND CONSTRUCTS THEREOF” (Mariana Oncology Inc., priority 2024, published 2025)
Read-outs that look alike come from different tables or passages of the source. Starred links: 1 amine or outer side, 2 acyl side, 3 side chain; linkers in the order of their positions; H or OH if unused. Positions of bridges follow the written chain, without caps; N, C: chain ends. Non-standard residues stand in square brackets, D forms with d. Residues, ends and D or L forms follow the SMILES beside them. Groups on a side chain read outwards from the residue. *: point of attachment. X7 = O=C(O)CN1CCN(CC(=O)O)CCN(CC(=O)NCCOCCOCCOCCOCCOCCOCCOCCOCC(=O)*)CCN(CC(=O)O)CC1; Ala(piperidin-4-yl) = O=C([C@H](CC1CCN([*:3])CC1)N[*:1])[*:2]; DOTA = O=C(O)CN1CCN(CC(=O)O)CCN(CC(=O)*)CCN(CC(=O)O)CC1; Phe(4-COOH) = N[C@@H](Cc1ccc(C(=O)O)cc1)C(=O)O; Trp(4-Me) = Cc1cccc2[nH]cc(C[C@H](N)C(=O)O)c12; Trp(5-F) = N[C@@H](Cc1c[nH]c2ccc(F)cc12)C(=O)O; X1 = C[C@@H](c1ccccc1)[C@H](N[*:1])C(=O)[*:2]; PEG8 = NCCOCCOCCOCCOCCOCCOCCOCCOCCC(=O)O; 1Nal = N[C@@H](Cc1cccc2ccccc12)C(=O)O; Ala(4-THP) = N[C@@H](CC1CCOCC1)C(=O)O; Val(3-OH) = CC(C)(O)[C@H](N)C(=O)O; Aad = N[C@@H](CCCC(=O)O)C(=O)O; Cit = NC(=O)NCCC[C@H](N)C(=O)O; pGlu = O=C1CC[C@@H](C(=O)O)N1; PEG4 = NCCOCCOCCOCCOCCC(=O)O; Tle = CC(C)(C)[C@H](N)C(=O)O; hLeu = CC(C)CC[C@H](N)C(=O)O; NMeC = CN[C@@H](CS)C(=O)O; Nle = CCCC[C@H](N)C(=O)O; NEtG = CCNCC(=O)O

Target: T1, human 4lg B7-H3 (Homo sapiens, UniProt Q5ZPR3)
T1 sequence (Q5ZPR3 29-534): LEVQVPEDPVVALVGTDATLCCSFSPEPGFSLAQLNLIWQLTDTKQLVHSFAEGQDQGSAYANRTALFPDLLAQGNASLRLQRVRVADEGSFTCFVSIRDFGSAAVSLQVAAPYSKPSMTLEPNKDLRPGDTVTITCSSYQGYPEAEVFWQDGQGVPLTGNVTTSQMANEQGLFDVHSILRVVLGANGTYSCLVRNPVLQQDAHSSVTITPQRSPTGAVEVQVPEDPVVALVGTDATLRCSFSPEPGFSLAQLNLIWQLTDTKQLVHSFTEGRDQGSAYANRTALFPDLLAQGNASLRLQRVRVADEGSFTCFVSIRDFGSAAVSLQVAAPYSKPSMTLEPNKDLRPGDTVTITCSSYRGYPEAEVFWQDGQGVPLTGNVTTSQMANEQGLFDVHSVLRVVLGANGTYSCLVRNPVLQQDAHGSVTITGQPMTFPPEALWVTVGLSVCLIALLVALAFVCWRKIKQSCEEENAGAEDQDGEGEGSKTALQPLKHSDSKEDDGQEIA
Test: Affinity determination by surface plasmon resonance (SPR) to 4Ig B7-H3
Settings: 4Ig B7-H3

[1] = SPR KD—25° C., 25° C. flow cell temperature
[2] = SPR KD—37° C., 37° C. flow cell temperature

Compound | Kd [1] [nM] | Kd [2] [nM] | also measured
CCCC[C@@H]1NC(=O)[C@H](C(C)C)NC(=O)[C@H](CC(=O)O)NC(=O)[C@H](Cc2ccc(C(=O)O)cc2)NC(=O)[C@H](CCCCN)NC(=O)CNC(=O)[C@H](C(C)C)NC(=O)[C@@H](NC(=O)[C@H](Cc2ccc(O)cc2)NC(=O)[C@H](CCC(C)C)NC(=O)CCOCCOCCOCCOCCOCCOCCOCCOCCNC(=O)CN2CCN(CC(=O)O)CCN(CC(=O)O)CCN(CC(=O)O)CC2)CSSC[C@@H](C(=O)N[C@@H](Cc2c[nH]c3ccc(F)cc23)C(=O)N[C@@H](Cc2ccccc2)C(=O)N2CCC[C@H]2C(N)=O)NC1=O [compound 293, DOTA-PEG8-hLeu-Y-C-V-G-K-4COOHPhe-D-V-Nle-C-5FW-F-Pro-CONH2] ({DOTA-PEG8}-[hLeu]YCVGK[Phe(4-COOH)]DV[Nle]C[Trp(5-F)]FP-NH2; disulfide 3-11) | 10 to 100 | – | –
CC(=O)N[C@@H](CCC(C)C)C(=O)N[C@@H](Cc1ccc(O)cc1)C(=O)N[C@H]1CSSC[C@@H](C(=O)N[C@@H](Cc2c[nH]c3ccc(F)cc23)C(=O)N[C@@H](Cc2ccccc2)C(=O)N[C@H](C(=O)N[C@H](CCCCNC(=O)CN2CCN(CC(=O)O)CCN(CC(=O)O)CCN(CC(=O)O)CC2)C(=O)O)C(C)(C)O)NC(=O)[C@H](Cc2ccc(O)cc2)NC(=O)[C@H](CO)NC(=O)[C@H](CC(=O)O)NC(=O)[C@H](CC2CCOCC2)NC(=O)[C@H](CCCCN)NC(=O)CNC(=O)[C@H](C(C)(C)C)NC1=O [compound 378, Ac-hLeu-Y-C-Tbg-G-K-ThpA-D-Ser-Y-C-5FW-F-hydroxyVal-dLys(DOTA)-COOH] (Ac-[hLeu]YC[Tle]GK[Ala(4-THP)]DSYC[Trp(5-F)]F[Val(3-OH)][dK](DOTA)-OH; disulfide 3-11) | – | 100 to 300 | –
CCCC[C@H](NC(C)=O)C(=O)N[C@@H](Cc1ccc(O)cc1)C(=O)N[C@H]1CSSC[C@@H](C(=O)N[C@@H](Cc2c[nH]c3ccccc23)C(=O)N[C@@H](Cc2ccccc2)C(N)=O)NC(=O)[C@H](Cc2ccc(O)cc2)NC(=O)[C@H](C(C)C)NC(=O)[C@H](CC(=O)O)NC(=O)[C@H](Cc2ccc(O)cc2)NC(=O)[C@H](CCCCN)NC(=O)CN(CC)C(=O)[C@H](C(C)C)NC1=O [compound 52, Ac-Nle-Y-C-V-NetGly-K-Y-D-V-Y-C-W-F-CONH2] (Ac-[Nle]YCV[NEtG]KYDVYCWF-NH2; disulfide 3-11) | 10 to 100 | – | –
CC(=O)N[C@@H](CCC(C)C)C(=O)N[C@@H](Cc1ccc(O)cc1)C(=O)N(C)[C@H]1CSSC[C@@H](C(=O)N[C@@H](Cc2c[nH]c3ccc(F)cc23)C(=O)N[C@@H](Cc2ccccc2)C(=O)N[C@H](C(=O)N[C@H](CCCCNC(=O)CN2CCN(CC(=O)O)CCN(CC(=O)O)CCN(CC(=O)O)CC2)C(N)=O)[C@@H](C)O)NC(=O)[C@H](Cc2ccc(O)cc2)NC(=O)[C@H](C(C)C)NC(=O)[C@H](CC(=O)O)NC(=O)[C@H](Cc2ccc(O)cc2)NC(=O)[C@H](CCCCN)NC(=O)CNC(=O)[C@H](C(C)C)NC1=O [compound 237, Ac-hLeu-Y-NMeCys-V-G-K-Y-D-V-Y-C-5FW-F-Thr-dLys(DOTA)-CONH2] (Ac-[hLeu]Y[NMeC]VGKYDVYC[Trp(5-F)]FT[dK](DOTA)-NH2; disulfide 3-11) | 1 to 10 | – | –
CC(C)CC[C@H](NC(=O)[C@@H]1CCC(=O)N1)C(=O)N[C@@H](Cc1ccc(O)cc1)C(=O)N[C@H]1CSSC[C@@H](C(=O)N[C@@H](Cc2c[nH]c3ccc(F)cc23)C(=O)N[C@H](C(=O)N[C@H](C(=O)N[C@H](CCCCNC(=O)CN2CCN(CC(=O)O)CCN(CC(=O)O)CCN(CC(=O)O)CC2)C(=O)O)C(C)(C)O)[C@@H](C)c2ccccc2)NC(=O)[C@H](Cc2ccc(O)cc2)NC(=O)[C@H](C(C)C)NC(=O)[C@H](CC(=O)O)NC(=O)[C@H](CC2CCOCC2)NC(=O)[C@H](CC2CCNCC2)NC(=O)CNC(=O)[C@H](C(C)(C)C)NC1=O [compound 507, Pyroglutamate-hLeu-Y-C-Tbg-G-PipAla-ThpA-D-V-Y-C-5FW-[(2S, 3S)beta-Me-Phe]-hydroxyVal-dLys(DOTA)-COOH] ([pGlu][hLeu]YC[Tle]G[Ala(piperidin-4-yl)][Ala(4-THP)]DVYC[Trp(5-F)][X1][Val(3-OH)][dK](DOTA)-OH; disulfide 4-12) | – | < 1 | –
CC(=O)N[C@@H](CCC(C)C)C(=O)N[C@@H](Cc1ccc(O)cc1)C(=O)N[C@H]1CSSC[C@@H](C(=O)N[C@@H](Cc2c[nH]c3ccc(F)cc23)C(=O)N[C@@H](Cc2ccccc2)C(=O)N2CCC[C@H]2C(=O)O)NC(=O)[C@H](Cc2ccc(O)cc2)NC(=O)[C@H](C(C)C)NC(=O)[C@H](CC(=O)O)NC(=O)[C@H](CC2CCOCC2)NC(=O)[C@H](CCCCNC(=O)CN2CCN(CC(=O)O)CCN(CC(=O)O)CCN(CC(=O)O)CC2)NC(=O)CNC(=O)[C@H](C(C)(C)C)NC1=O [compound 305, Ac-hLeu-Y-C-Tbg-G-Lys(DOTA)-ThpA-D-V-Y-C-5FW-F-Pro-COOH] (Ac-[hLeu]YC[Tle]GK(DOTA)[Ala(4-THP)]DVYC[Trp(5-F)]FP-OH; disulfide 3-11) | 100 to 300 | – | –
CC(=O)N[C@@H](CCC(C)C)C(=O)N[C@@H](Cc1ccc(O)cc1)C(=O)N[C@H]1CSSC[C@@H](C(=O)N[C@@H](Cc2c[nH]c3ccc(F)cc23)C(=O)N[C@@H](Cc2ccccc2)C(=O)N[C@H](C(=O)N[C@H](CCC(=O)O)C(=O)O)C(C)(C)O)NC(=O)[C@H](Cc2ccc(O)cc2)NC(=O)[C@H](C(C)C)NC(=O)[C@H](CC(=O)O)NC(=O)[C@H](CC2CCN(C(=O)CCOCCOCCOCCOCCNC(=O)CN3CCN(CC(=O)O)CCN(CC(=O)O)CCN(CC(=O)O)CC3)CC2)NC(=O)[C@H](CC2CCNCC2)NC(=O)CNC(=O)[C@H](C(C)(C)C)NC1=O [compound 448, Ac-hLeu-Y-C-Tbg-G-PipAla-Pip(PEG4-DOTA)Ala-D-V-Y-C-5FW-F-hydroxyVal-dGlu-COOH] (Ac-[hLeu]YC[Tle]G[Ala(piperidin-4-yl)][Ala(piperidin-4-yl)]([PEG4-DOTA])DVYC[Trp(5-F)]F[Val(3-OH)][dE]-OH; disulfide 3-11) | – | < 1 | –
CC(=O)N[C@@H](CCC(C)C)C(=O)N[C@@H](Cc1ccc(O)cc1)C(=O)N[C@H]1CSSC[C@@H](C(=O)N[C@@H](Cc2c[nH]c3ccc(F)cc23)C(=O)N[C@@H](Cc2ccccc2)C(=O)N[C@H](C(=O)N[C@H](C)C(=O)O)C(C)(C)O)NC(=O)[C@H](Cc2ccc(O)cc2)NC(=O)[C@H](C(C)C)NC(=O)[C@H](CC(=O)O)NC(=O)[C@H](CC2CCN(C(=O)CCOCCOCCOCCOCCNC(=O)CN3CCN(CC(=O)O)CCN(CC(=O)O)CCN(CC(=O)O)CC3)CC2)NC(=O)[C@H](CCCNC(N)=O)NC(=O)CNC(=O)[C@H](C(C)(C)C)NC1=O [compound 489, Ac-hLeu-Y-C-Tbg-G-Cit-Pip(PEG4-DOTA)Ala-D-V-Y-C-5FW-F-hydroxyVal-dAla-COOH] (Ac-[hLeu]YC[Tle]G[Cit][Ala(piperidin-4-yl)]([PEG4-DOTA])DVYC[Trp(5-F)]F[Val(3-OH)][dA]-OH; disulfide 3-11) | – | – | Kd (read-out: SPR KD—37° C., 37° C. flow cell temperature): < 1 nM
CCCC[C@H](NC(C)=O)C(=O)N[C@@H](Cc1ccc(O)cc1)C(=O)N[C@H]1CSSC[C@@H](C(=O)N[C@@H](Cc2c[nH]c3ccccc23)C(=O)N[C@@H](Cc2ccccc2)C(=O)N[C@H](C(=O)N[C@H](CCCCNC(=O)CN2CCN(CC(=O)O)CCN(CC(=O)O)CCN(CC(=O)O)CC2)C(=O)O)[C@@H](C)O)NC(=O)[C@H](Cc2ccc(O)cc2)NC(=O)[C@H](C(C)C)NC(=O)[C@H](CC(=O)O)NC(=O)[C@H](Cc2ccc(O)cc2)NC(=O)[C@H](CCCC(=O)O)NC(=O)CNC(=O)[C@H](C(C)C)NC1=O [compound 103, Ac-Nle-Y-C-V-G-HomoGlu-Y-D-V-Y-C-W-F-Thr-dLys(DOTA)-COOH] (Ac-[Nle]YCVG[Aad]YDVYCWFT[dK](DOTA)-OH; disulfide 3-11) | 10 to 100 | – | –
CC(=O)N[C@@H](CCC(C)C)C(=O)N[C@@H](Cc1ccc(O)cc1)C(=O)N[C@H]1CSSC[C@@H](C(=O)N[C@@H](Cc2c[nH]c3cccc(C)c23)C(=O)N[C@@H](Cc2ccccc2)C(=O)N[C@H](C(=O)N[C@H](CCCCNC(=O)CN2CCN(CC(=O)O)CCN(CC(=O)O)CCN(CC(=O)O)CC2)C(=O)O)C(C)(C)O)NC(=O)[C@H](Cc2ccc(O)cc2)NC(=O)[C@H](C(C)C)NC(=O)[C@H](CC(=O)O)NC(=O)[C@H](CC2CCOCC2)NC(=O)[C@H](CC2CCNCC2)NC(=O)CNC(=O)[C@H](C(C)(C)C)NC1=O [compound 473, Ac-hLeu-Y-C-Tbg-G-PipAla-ThpA-D-V-Y-C-4MeW-F-hydroxyVal-dLys(DOTA)-COOH] (Ac-[hLeu]YC[Tle]G[Ala(piperidin-4-yl)][Ala(4-THP)]DVYC[Trp(4-Me)]F[Val(3-OH)][dK](DOTA)-OH; disulfide 3-11) | – | 1 to 10 | –
CC(=O)N[C@@H](CCC(C)C)C(=O)N[C@@H](Cc1ccc(O)cc1)C(=O)N[C@H]1CSSC[C@@H](C(=O)N[C@@H](Cc2cccc3ccccc23)C(=O)N[C@@H](Cc2ccccc2)C(=O)N2CCC[C@H]2C(=O)N[C@H](CCCCNC(=O)COCCOCCOCCOCCOCCOCCOCCOCCNC(=O)CN2CCN(CC(=O)O)CCN(CC(=O)O)CCN(CC(=O)O)CC2)C(N)=O)NC(=O)[C@H](Cc2ccc(O)cc2)NC(=O)[C@H](C(C)C)NC(=O)[C@H](CC(=O)O)NC(=O)[C@H](CC2CCOCC2)NC(=O)[C@H](CCCCN)NC(=O)CNC(=O)[C@H](C(C)(C)C)NC1=O [compound 280, Ac-hLeu-Y-C-Tbg-G-K-ThpA-D-V-Y-C-1Nal-F-Pro-dLys(PEG8-DOTA)-CONH2] (Ac-[hLeu]YC[Tle]GK[Ala(4-THP)]DVYC[1Nal]FP[dK](X7)-NH2; disulfide 3-11) | < 1 | – | –
